For series [1], the system named is FLC5 PDX cells. Nature of the series: Validation screen, 11-point dose response, 72 h, Cell Titer Glo. Format: cell-based, human. The note with it: read-out: EC50 FLC.
Series [2] concerns FLC PDX cells. Nature of the series: Validation screen on cells dissociated from FLC PDX. Format: cell-based, human. Conditions: for Efficacy ranking in the screen: ranked by average −log10EC50 for FLC1-5 minus −log10EC50 for PHH; for Effect on FLC PDX cells in vitro (dose response, normalized percent survival): 10nM-10μM, 72 h, FLC1-6.
Series [3] concerns FLC2 PDX cells. Nature of the series: Validation screen, 11-point dose response, 72 h, Cell Titer Glo. Format: cell-based, human. Conditions: read-out: EC50 FLC.
Series [4] has as its system primary human hepatocytes (PHH). Nature of the series: Validation counter-screen on primary human hepatocytes. The note with it: 72 h; for EC50: read-out: EC50 PHH. A general note: The purpose of a counterscreen is to sort out artefacts and off-target activity.
For series [5], the target named is Akt3. The note with it: read-out: Ki against other kinases: Akt3; cited from earlier work.
In series [6] the test system is FLC4 PDX cells. Nature of the series: Validation screen, 11-point dose response, 72 h, Cell Titer Glo. It is filed as cell-based, human. The note with it: read-out: EC50 FLC. Background: ATP-based viability assays read luminescence as a measure of living cells.
Series [7] relates to FLC1 PDX cells. Described as above. It is filed as cell-based, human. Conditions: read-out: EC50 FLC.
For series [8], the system named is FLC5 cells. The series can be described thus: Anchor screen, synergy assay. Format: cell-based, human. Conditions: FLC5, ZIP, Bliss and HSA scores.
The subject of series [9] is FLC3 PDX cells. The series can be described thus: Validation screen, 11-point dose response, 72 h, Cell Titer Glo. Conditions: read-out: EC50 FLC. Format: cell-based, human.
For series [10], the target named is PKA. The note with it: read-out: Ki PKA; cited from earlier work.
For series [11], the target named is Akt1. Conditions: read-out: Ki against other kinases: Akt1; cited from earlier work.
In series [12] the test system is cells dissociated directly from patient tumors (FLC.T6-T11). Nature of the series: Direct from patient in vitro screening. Format: cell-based, human. The note with it: for Sensitivity of cells tested directly from patients: 10μM-10nM, 72h, Cell Titer Glo; for Drug sensitivity of FLC.T6 compared with derived PDX FLC6 (EC50): cells direct from patient tumor vs cells from its PDX.

For series [13], the target named is Rock2. Conditions: read-out: Ki against other kinases: Rock2; cited from earlier work.
Series [14] deals with Rock1. Conditions: read-out: Ki against other kinases: Rock1; cited from earlier work.
For series [15], the target named is Akt2. Conditions: read-out: Ki against other kinases: Akt2; cited from earlier work.
Series [16] has as its target p70s6k. The note with it: read-out: Ki against other kinases: p70s6k; cited from earlier work.
Series [17] concerns the target PKCδ. The note with it: read-out: Ki against other kinases: PKCδ; cited from earlier work.
For series [18], the target named is GSK-3β. The note with it: read-out: Ki against other kinases: GSK-3β; cited from earlier work.
In series [19] the target is RSK2. The note with it: read-out: Ki against other kinases: RSK2; cited from earlier work.
For series [20], the target named is ERK2. The note with it: read-out: Ki against other kinases: ERK2; cited from earlier work.
The subject of series [21] is PAK 1. The note with it: read-out: IC50 PAK 1; cited from earlier work.
The test system of series [22] is PAK 2. The note with it: read-out: IC50 PAK 2; cited from earlier work.
Series [23] concerns PAK 3. Conditions: read-out: IC50 PAK 3; cited from earlier work.
Series [24] concerns EGFR. Conditions: read-out: IC50 EGFR; cited from earlier work.
Series [25] has as its system ErbB2. Conditions: read-out: IC50 ErbB2; cited from earlier work.
In series [26] the target is PKG. Conditions: read-out: Ki against other kinases: PKG; printed as PKG/PKC; cited from earlier work.
Series [27] addresses PKC. Conditions: read-out: Ki against other kinases: PKC; printed as PKG/PKC; cited from earlier work.
Series [28] deals with PI3K (p110α)/DNA-PK. The note with it: read-out: IC50 PI3K (p110α)/DNA-PK; cited from earlier work.
Series [29] concerns FLC patients. The note with it: two FLC patients, clinical trial ref 10; cited from earlier work.
For series [30], the system named is FLC1 PDX. Nature of the series: In vivo drug testing in mice bearing PDX FLC1. Conditions: 2 days, FLC1.
Series [31] deals with FLC1 cells. Nature of the series: Role of ROS: survival with or without N-acetyl cysteine 10mM. Format: cell-based, human. Conditions: NAC 10mM, 72 h.
Series [32] concerns FLC5 PDX. The series can be described thus: In vivo drug testing in mice bearing PDX FLC5. The note with it: panobinostat 2.5mg/kg combined with navitoclax 50 mg/kg.
For series [33], the system named is FLC PDX. The series can be described thus: In vivo drug testing of HDAC inhibitors in mice bearing PDX.
The subject of series [34] is mTOR. The note with it: read-out: IC50 mTOR; cited from earlier work.

Results on ten compounds are retold here after paper PMC8734228 (Cancer discovery, 2021).

Where two headings read alike, the source gives them in different places.

A word on the EC50: it is the concentration needed to bring the measured effect to its halfway point. As usually defined, the Ki is a dissociation constant, usually derived from enzyme kinetics or from competition with a known ligand. For the compound `Cn1ncc(Cl)c1-c1cc(C(=O)N[C@H](CN)Cc2ccc(F)c(F)c2)oc1Cl` [Uprosertib (GSK2141795), Uprosertib], the EC50 in series [1] (Homo sapiens, 72 h) is 1720 nM; in [3] (Homo sapiens, 72 h), 5.04 µM; in series [4] (Homo sapiens, Hepatocyte), above 10 µM; in series [6] (Homo sapiens, 72 h) it was 910 nM; in series [7] (Homo sapiens, 72 h), 49 nM; in [9] (Homo sapiens, 72 h), 870 nM. In addition, the “Efficacy ranking in the screen” value in series [2] is given as 28. Moreover, the results for the Ki in [5], in [10] and in [11] were 38 nM, 2 nM and 180 nM, respectively. Also, in series [8], the “Synergy with A1331852” value is “All drugs, apart from ENMD-2076 and uprosertib, showed some synergy”. Moreover, in series [8], the Synergy with navitoclax result was “now synergized”. For the same compound, the “Sensitivity of cells tested directly from patients” value (“Sensitivity … from patients” below) in [12] was “some sensitivity”.
In the case of `NC[C@@](O)(c1ccc(Cl)cc1)c1ccc(-c2cn[nH]c2)cc1` [AT13148], the EC50 in [1] (Homo sapiens, 72 h) was 96 nM; in [3] (Homo sapiens, 72 h), 6.14 µM; in series [4] (Homo sapiens, Hepatocyte), 4.05 µM; in [6] (Homo sapiens, 72 h), 4290 nM; in [7] (Homo sapiens, 72 h), 39 nM; in series [9] (Homo sapiens, 72 h), 590 nM. In addition, the Ki in series [5] is 50 nM; in series [13], 4 nM; in series [14] it was 6 nM; in series [15], 402 nM; in series [16], 8 nM; in series [10] it was 3 nM. Moreover, the Ki in [11] was 38 nM. In series [8], the “Synergy with A1331852” value is listed as “some synergy”. Moreover, the “Drug sensitivity of FLC.T6 compared with derived PDX FLC6 (EC50)” value in series [12] is reported as “outliers”.
As for `Cc1[nH]nc2ccc(-c3cncc(OC[C@@H](N)Cc4ccccc4)c3)cc12` [A-674563], the Ki in [17] is 360 nM; in [18] it was 110 nM; in series [19], 580 nM; in series [20], 260 nM; in series [10] it was 16 nM. Besides, in [2] (FLC PDX cells compared with PHH), the “Therapeutic window for FLC over PHH” value is listed as “no therapeutic window”. The EC50 in series [3] (FLC2, 72 h) was found to be 0.7 µM; in series [6] (FLC4, 72 h), 160 nM; in series [7] (FLC1, 72 h), 340 nM; in series [9] (FLC3, 72 h) it was 880 nM.
On to `CCn1c(=O)c(-c2ccc(-c3cncs3)cc2Cl)cc2cnc(Nc3ccc(N4CCN(C)CC4)cc3)nc21` [FRAX567], for which the IC50 in series [21] was 8 nM; in [22], […]; in [23] it was 19 nM. Also, the “Effect on FLC PDX cells in vitro (dose response, normalized percent survival)” value in series [2] was “consistent inhibition against all PDX”. Further, the “Efficacy ranking in the screen” value in series [2] is given as 12.
As to `CCOc1cc2ncc(C#N)c(Nc3ccc(OCc4ccccn4)c(Cl)c3)c2cc1NC(=O)/C=C/CN(C)C` [Neratinib], the IC50 in series [24] is 92 nM. Moreover, the “Effect on FLC PDX cells in vitro (dose response, normalized percent survival)” value in series [2] was “affected FLC1,5 in the micromolar range”. For the same compound, the IC50 in series [25] was 59 nM. In [12], the “Sensitivity … from patients” value was “no effect on three others” and the “Drug sensitivity of FLC.T6 compared with derived PDX FLC6 (EC50)” value is reported as “correlated well”.
`CCCCCCOC(=O)[C@]1(O)C[C@@H]2O[C@@]1(C)n1c3ccccc3c3c4c(c5c6ccccc6n2c5c31)C(=O)NC4` [KT5720]: the EC50 in series [1] (FLC5, 72 h) is 3870 nM; in series [3] (FLC2, 72 h) it was 2.14 µM; in series [4], above 10 µM; in [6] (FLC4, 72 h) it was 1480 nM; in series [7] (FLC1, 72 h), 1610 nM; in series [9] (FLC3, 72 h), 2710 nM. Further, the results for the Ki in series [26], in series [27] and in series [10] were above 2000 nM, above 2000 nM and 60 nM, respectively.
For the compound `Cc1ccc([N+](=O)[O-])cc1S(=O)(=O)N(C)/N=C/c1cnc2ccc(Br)cn12` [PIK-75], the IC50 in series [28] is 5.8 nM. The “Effect on FLC PDX cells in vitro (dose response, normalized percent survival)” value in series [2] is given as “potent against FLC1,4 relative to PHH”. Moreover, the “Sensitivity … from patients” value in [12] is “sensitive”.
Regarding `CN1CC[C@H](c2c(O)cc(O)c3c(=O)cc(-c4ccccc4Cl)oc23)[C@H](O)C1` [flavopiridol], the “Effect on PHH (dose response, normalized percent survival)” value in [4] (up to 10 μM) is given as “toxic”. Besides, the “Duration of stable disease” value in [29] was 17 months. Besides, the “Sensitivity … from patients” value in [12] is “some sensitivity”.
Take `Cc1[nH]c2ccccc2c1CCNCc1ccc(/C=C/C(=O)NO)cc1` [panobinostat]: the “Apoptosis (TUNEL), panobinostat alone compared to vehicle” value in series [30] (panobinostat 10mg/kg alone) is on record as “no evidence of increased apoptosis”. Moreover, the “Apoptotic cells (TUNEL) with combined treatment” value in series [30] (panobinostat 10mg/kg combined with A1331852 25mg/kg) was “many apoptotic cells”. For the same compound, the “Efficacy ranking in the screen” value in series [2] stood at 103. Besides, in [31], the “Effect of N-acetyl cysteine (NAC) on the toxicity of the drug” value is listed as “mildly attenuated”. In addition, in [32], the “Tumor response with combined treatment” value is “partial response”. For the same compound, in series [33] (10mg/kg IP), the “Tumor growth at 7 days” value is −7% and the “Tumor growth at 14 days” value was determined as 4%. For the same compound, in [33] (10mg/kg IP, 14 days), the Average weight loss amounted to 11% and the “Tumor volume:mouse weight” value is on record as “stable or decreased”. In addition, in series [33] (10mg/kg, after 14 days), the “Apoptosis as assayed by TUNEL” value is reported as “no increase in apoptosis”; the “Mitotic figures, Ki67 and pHH3 positive cells in tumors” value is recorded as “dramatic decrease”. In addition, in series [12], the “Sensitivity … from patients” value is “sensitive” and the “Drug sensitivity of FLC.T6 compared with derived PDX FLC6 (EC50)” value is given as “correlated well”.
With `CO[C@H]1C[C@@H]2CC[C@@H](C)[C@@](O)(O2)C(=O)C(=O)N2CCCC[C@H]2C(=O)O[C@H]([C@H](C)C[C@@H]2CC[C@@H](OCCO)[C@H](OC)C2)CC(=O)[C@H](C)/C=C(\C)[C@@H](O)[C@@H](OC)C(=O)[C@H](C)C[C@H](C)/C=C/C=C/C=C/1C` [everolimus], in series [8], the “Synergy with A1331852” value is reported as “some synergy”. Besides, the IC50 in [34] is 1.6 to 2.4 nM.
